{"source": "patent US20060171971A1", "about": "“Composition for wet wipes containing a non-irritating skin health benefit ingredient and the process for making” (The Procter & Gamble Company, priority 2005, published 2006)", "key": {"IL-1α": {"tested_on": "IL-1α", "assay": "Epiderm culture assay with quantification of IL-1α (test sample mixed with IIBM)", "format": "cell-based, human", "settings": "16 hours", "from_the_text": "(§1) Epiderm Culture Assay With Quantification of IL-1α and Viability\n(§2) In order to evaluate the efficacy of the materials and embodiments of the present invention, a bio-engineered human skin construct is used to model the response of normal human epidermis. The EPIDERM™ skin model (as available from MatTek Corporation, Ashland, Mass.) is a three-dimensional, cornified, air-interfaced culture system. Each EPIDERM™ culture has multiple layers of progressively differentiated keratinocytes, closely resembling human epidermis. EPIDERM™ EPI-200-hydrocortisone-free (hereinafter EPI-200-HCF) cultures are used because these cultures show a strong inflammatory response to irritants. Cultures are incubated in medium that is also hydrocortisone-free (EPI-100-MM-HCF). All work with the cultures is carried out under sterile conditions in a biological safety cabinet.\n(§3) Experiments using the EPI-200-HCF cultures are conducted in six-well plates supplied with the cultures. Each well of the plate is filled with 900 microliters of pre-warmed EPI-100-MM-HCF medium, and then one EPI-200-HCF culture insert (shipped in 24-well format) is carefully transferred into the center of each well such that no air bubbles are trapped underneath the insert. After all of the culture inserts are transferred, the six-well plates are incubated in a 37° C., 5% CO2 tissue culture incubator for at least two hours.\n(§4) During the time the cultures are acclimating, the controls and test samples to be applied to the cultures are prepared. Sufficient material is prepared such that quadruplicate cultures can be dosed with about 100 microliters of the control or test sample. Throughout this section, the word “water” refers to autoclaved, Milli-Q water.\n(§5) For each experiment, three controls are run. The first control is water. The second control is a freshly-made solution of 0.125% Triton-X-100 in water, prepared by diluting the 1% Triton-X-100 stock solution shipped with the EPIDERM™ cultures. The third control is infant irritating bowel movement (hereinafter IIBM). IIBM is prepared as described in the PREPARATION OF INFANT […] method of the TEST METHODS section. At the time of use, the required number of tubes of IIBM are thawed at room temperature and 250 microliter aliquots are dispensed into 1.5 ml polypropylene microfuge tubes using a positive displacement pipettor. To each microfuge tube is then added 10 microliters of a 1 N NaOH solution to raise the pH and ensure activity of the fecal enzymes. For the IIBM control, an additional 250 microliters of water is added, and the tube is mixed thoroughly using a vortex mixer.\n(§6) For preparation of the test samples, a suspension in water of the material to be tested is first prepared. As an example, a 1% suspension of zinc oxide in water is prepared by weighing out 0.1 grams of zinc oxide into a 15 ml polypropylene tube (such as Cat No. 21008-935 from VWR) and adding sufficient water to bring the volume to 10 milliliters. Each suspension is vortexed thoroughly and allowed to sit for at least one hour at room temperature prior to use. To ascertain the irritancy of the test sample by itself, the neat suspension is applied to the EPIDERM™ culture. To ascertain the ability of the test sample to reduce the irritancy of IIBM, 250 microliters of the suspension is added to a microfuge tube already containing a 250 microliter aliquot of IIBM plus 10 microliters of 1 N NaOH (as prepared above). […]"}, "EPIDERM™ cultures": {"tested_on": "EPIDERM™ cultures", "assay": "Epiderm culture viability, MTT assay", "format": "cell-based, human", "settings": "mixed with IIBM, 16 hours, normalized to water control", "from_the_text": "as §1, §2, §3, §4, §5, §6"}, "[1]": {"assay": "Lability method (Zincon metallochromic dye colour change)", "format": "physicochemical", "settings": "30 mg/10 ml water, pH 7-9, Zincon dye", "from_the_text": "Particulate zinc materials differ with respect to how strongly the zinc ion (Zn^2+) is held by the counterion or counterions. […] To determine which particulate zinc materials provide labile Zn^2+, a test is developed using a metallochromic dye that changes color upon coordinating Zn 2+. The response is a binary visual assessment of whether or not the color changes, indicating zinc-binding.\nThe method is based on the commercial metallochromic dye Zincon sodium salt (2-carboxy-2′-hydroxy-5′-sulfoformazyl-benzene sodium salt, such as Cat. No. 201332 available from Sigma-Aldrich, St. Louis, Mo.). Zincon changes from an orange to blue color upon binding zinc ion and provides the basis for detecting available Zn 2+. The specific procedure involves making a stock solution of Zincon in ethanol (50 mg/10 ml ethanol). The particulate zinc material is then added to water (30 mg/10 ml water) and agitated vigorously (pH should be 7-9). Three to four drops of Zincon solution are then added to the particulate zinc material in water, agitated, and a visual assessment of color change made."}}, "note": "Several values for one entry are separate records, joined by “and”; a condition that tells them apart may be missing. Identical values can stand only once.", "data": [{"compound": "[O]=[Zn]", "note": "[Zinc Oxide, zinc oxide]", "values": [{"measurement": "Mean % IL-1α Reduction", "setting": "IL-1α; zinc oxide 31 mM (0.25% w/w)", "value": 68, "unit": "%"}, {"measurement": "Mean % IL-1α Reduction", "setting": "IL-1α; zinc oxide 63 mM (0.5% w/w)", "value": 76, "unit": "%"}, {"measurement": "Mean % IL-1α Reduction", "setting": "IL-1α; zinc oxide 125 mM (1.0% w/w)", "value": 90, "unit": "%"}, {"measurement": "Normalized EPIDERM Viability", "setting": "EPIDERM™ cultures; zinc oxide 31 mM (0.25% w/w)", "value": 95, "unit": "%"}, {"measurement": "Normalized EPIDERM Viability", "setting": "EPIDERM™ cultures; zinc oxide 63 mM (0.5% w/w)", "value": 95, "unit": "%"}, {"measurement": "Normalized EPIDERM Viability", "setting": "EPIDERM™ cultures; zinc oxide 125 mM (1.0% w/w)", "value": 96, "unit": "%"}, {"measurement": "available (labile) Zn2+, binary visual assessment of colour change", "setting": "[1]", "value": "having available Zn^2+"}]}, {"compound": "O=S(=O)([O-])[O-].[Zn+2]", "note": "[Zinc Sulfate, zinc sulfate]", "values": [{"measurement": "Mean % IL-1α Reduction", "setting": "IL-1α; zinc sulfate 87 mM (2.5% w/w)", "value": "99% and 98%"}, {"measurement": "Mean % IL-1α Reduction", "setting": "IL-1α; zinc sulfate 174 mM (5.0% w/w)", "value": "98% and 99%"}, {"measurement": "Normalized EPIDERM Viability", "setting": "EPIDERM™ cultures; zinc sulfate 87 mM (2.5% w/w)", "value": "44% and 28%"}, {"measurement": "Normalized EPIDERM Viability", "setting": "EPIDERM™ cultures; zinc sulfate 174 mM (5.0% w/w)", "value": "14% and 11%"}]}, {"compound": "O=C([O-])[O-].[Zn+2]", "note": "[zinc carbonate]", "values": [{"measurement": "available (labile) Zn2+, binary visual assessment of colour change", "setting": "[1]", "value": "having available Zn^2+"}]}, {"compound": "OCC(O)CO.[Zn]", "note": "[zinc monoglycerolate]", "values": [{"measurement": "available (labile) Zn2+, binary visual assessment of colour change", "setting": "[1]", "value": "having available Zn^2+"}]}, {"compound": "zinc stearate", "values": [{"measurement": "available (labile) Zn2+, binary visual assessment of colour change", "setting": "[1]", "value": "having available Zn^2+"}]}]}
